In ChEMBL document CHEMBL3813611, “Antiprotozoal activity of bicycles featuring a dimethylamino group at their bridgehead” (Bioorg Med Chem, 2016):

How the values were obtained:
[1] = system: Plasmodium falciparum; test: Antiplasmodial activity against chloroquine/pyrimethamine resistant Plasmodium falciparum K1 infected in human red blood cells after 48 hrs by [3H]hypoxanthine incorporation assay; type: functional, organism-based
[2] = system: Trypanosoma brucei rhodesiense; test: Antitrypanosomal activity against Trypanosoma brucei rhodesiense STIB 900 bloodstream forms after 72 hrs by Alamar blue assay; type: functional, organism-based; conditions: STIB 900, 72 h
[3] = system: L6; test: Cytotoxicity against rat L6 cells assessed as reduction in cell viability after 72 hrs by Alamar blue assay; type: cell-based; conditions: L6, 72 h
[4] = Selectivity index, ratio of IC50 for rat L6 cells to IC50 for chloroquine/pyrimethamine resistant Plasmodium falciparum K1 infected in human red blood cells; type: toxicity, cell-based; conditions: read-out: Ratio IC50
[5] = Selectivity index, ratio of IC50 for rat L6 cells to IC50 for Trypanosoma brucei rhodesiense STIB 900 bloodstream forms; type: toxicity, cell-based; conditions: read-out: Ratio IC50

SMILES	IC50 [1]	IC50 [2]	IC50 [3]	selectivity ratio [4]	selectivity ratio [5]
CCN(CC)CC(=O)N1CCC2(N(C)C)CC(c3ccccc3)C1C(c1ccccc1)C2 (stereo not drawn)	1.3 µM	5.21 µM	89.6 µM	68.9	17.2
CN(C)C12CCN(C(=O)CN3CCCCC3)C(C(c3ccccc3)C1)C(c1ccccc1)C2 (stereo not drawn)	1.72 µM	9.47 µM	141 µM	82.2	14.9
CCN(CC)CCCN1CC2C(c3ccccc3)CC(N(C)C)(CC2c2ccccc2)C1 (racemic)	0.065 µM	0.46 µM	3.27 µM	50.3	7.11
CN1CCN(CCN2CC3C(c4ccccc4)CC(N(C)C)(CC3c3ccccc3)C2)CC1 (racemic)	0.25 µM	0.27 µM	5.26 µM	21	19.5
CCN(CC)CCC(=O)N1CC2C(c3ccccc3)CC(N(C)C)(CC2c2ccccc2)C1 (racemic)	0.39 µM	1.46 µM	15.4 µM	39.6	20.6
CN(C)C12CC(c3ccccc3)C(CN(C(=O)CCN3CCCC3)C1)C(c1ccccc1)C2 (racemic)	0.22 µM	1.57 µM	11.7 µM	53.3	7.46
CN(C)C12CC(c3ccccc3)C(CN(C(=O)CN3CCCC3)C1)C(c1ccccc1)C2 (racemic)	0.24 µM	2.16 µM	12.6 µM	52.4	5.82
CN1CCN(CCC(=O)N2CC3C(c4ccccc4)CC(N(C)C)(CC3c3ccccc3)C2)CC1 (racemic)	0.18 µM	1.52 µM	13 µM	72.1	8.54
CN1CCN(CCCN2CC3C(c4ccccc4)CC(N(C)C)(CC3c3ccccc3)C2)CC1 (racemic)	0.15 µM	0.11 µM	0.2 µM	1.33	1.82
CN(C)C12CC(c3ccccc3)C(CN(C(=O)CCN3CCCCC3)C1)C(c1ccccc1)C2 (racemic)	0.052 µM	1.23 µM	12.4 µM	238	10.1
CN(C)C12CC(c3ccccc3)C(CN(C(=O)CN3CCCCC3)C1)C(c1ccccc1)C2 (racemic)	0.4 µM	2.4 µM	12.1 µM	30.3	5.05
CN(C)C12CC(NC(=O)CN3CCCCC3)C(C(c3ccccc3)C1)C(c1ccccc1)C2 (racemic)	0.11 µM	0.48 µM	7.16 µM	65.1	14.9
CN(C)C12CC(c3ccccc3)C(CN(CCCN3CCCCC3)C1)C(c1ccccc1)C2 (racemic)	0.19 µM	0.15 µM	1.75 µM	9.21	11.7
CN(C)C12CC(NC(=O)CCN3CCCCC3)C(C(c3ccccc3)C1)C(c1ccccc1)C2 (racemic)	0.69 µM	1.49 µM	7.85 µM	11.4	5.27
CN(C)C12CC(c3ccccc3)C(CN(CCN3CCCC3)C1)C(c1ccccc1)C2 (racemic)	0.29 µM	0.54 µM	5.58 µM	19.2	10.3
CCN(CC)CCN1CCC2(N(C)C)CC(c3ccccc3)C1C(c1ccccc1)C2 (racemic)	0.71 µM	1.79 µM	101 µM	142	56.5
CN1CCN(CC(=O)N2CC3C(c4ccccc4)CC(N(C)C)(CC3c3ccccc3)C2)CC1 (racemic)	0.43 µM	1.47 µM	9.25 µM	21.5	6.29
CN(C)C12CC(c3ccccc3)C(CN(CCN3CCCCC3)C1)C(c1ccccc1)C2 (racemic)	0.09 µM	0.12 µM	2.92 µM	32.4	24.3
CN(C)C12CCN(CCN3CCCCC3)C(C(c3ccccc3)C1)C(c1ccccc1)C2 (racemic)	0.87 µM	2.62 µM	135 µM	155	51.6
CN(C)C12CC(c3ccccc3)C(CN(CCCN3CCCC3)C1)C(c1ccccc1)C2 (racemic)	0.15 µM	0.16 µM	1.55 µM	10.3	9.69
C[C@@H]1CC[C@H]2[C@@H](C)C(=O)O[C@@H]3O[C@@]4(C)CC[C@@H]1[C@]32OO4 [ARTEMISININ]	0.0064 µM	–	–	70400	–
Nc1nc(N)nc(Nc2ccc([As]3SCC(CO)S3)cc2)n1 (stereo not drawn) [MELARSOPROL]	–	–	–	–	2000
